The values that follow come from patent publication US8940857B2, “Methods and compositions for enhancing delivery of double-stranded RNA or a double-stranded hybrid nucleic acid to regulate gene expression in mammalian cells” (Marina Biotech, Inc., priority 2004, dated 2015).

Oligonucleotides are written 5' to 3', each unit as a sugar letter and its base; * is a phosphorothioate linkage, no mark a phosphodiester; rarer units and linkages stand in square brackets, end groups in braces. Plain capitals give the bases only. No end group written: not given here. maleimide = maleimide group (amino-terminal modification); d = 2'-deoxy (DNA); r = 2'-OH (RNA)

The first data set relates to beta-galactosidase mRNA. Nature of the data set: Transfection of 9L/LacZ cells with siRNA and lipofectamine, beta-Gal/BCA assay (silencing of beta-galactosidase). To be noted: 9L/beta-gal cells, transfected with lipofectamine; control = cells transfected by lipofectamine alone; lower = greater efficacy. In kind it is cell-based. As to the method: Transfection of 9L/LacZ Cells:
• a) Take saturated 9L/LacZ culture from T75 flask, detach cell and dilute into 10 ml with complete medium (DMEM, 1× PS, 1× Na Pyruvate, 1× NEAA). • b) Further dilute the cell to 1:15, and seed 100 μl into each 96 well, which should give 50% confluence cell the next day for transfection. […] Flow Cytometry Measurement of FITC/FAM Conjugated siRNA • a) After transfection, incubate cell for at least 3 hours. • b) Wash with 200 μl PBS. • c) Detach cell with 15 μl TE, incubate at 37° C. • d) Re-suspend five wells with 30 μl FACS solution (PBS with 0.5% BSA, and 0.1% sodium Azide) • e) Combine all five wells into a tube. • f) Add PI 5 μl into each tube. • g) Analyze the cells with fluorescence activated cell sorting (FCAS) with BD FACscan instrument according to manufacture's instruction.
The transfection was performed with either regular siRNA or cholesterol-conjugated siRNA with lipofectamine (Invitrogen) on 9L/beta-gal cells. The siRNA was designed to specifically knock down beta-galactosidase mRNA and activities are expressed as percentage of beta-gal activities from control (transfected cells by lipofectamine alone). […]
As to “AA: siRNA construct with no cholesterol conjugated to any of the ends of the sense or antisense RNA strands (SEQ ID NO: 14/15) (sense rCrUrArCrArCrArArArUrCrArGrCrGrArUrUrUdTdT; antisense rArArArUrCrGrCrUrGrArUrUrUrGrUrGrUrArGdTdT)”, the “Activity (% of control): beta-galactosidase activity remaining after the transfection” value is listed as 23.12 % of control.

The next data set deals with epithelial monolayers. Nature of the data set: Peptide-mediated changes in trans-epithelial electrical resistance (TEER), permeation across epithelial monolayers. It counts as cell-based. The following applies: measured by peptide-mediated changes in TEER.
Turning to “NH2-RRRQRRKRGGDIMGEWGNEIFGAIAGFLG-amide (SEQ ID NO: 10) (H-RRRQRRKRGGDIMGEWGNEIFGAIAGFLG-NH2; listed as Influenza virus) [PN250]”, the “Effects (activity to enhance permeation across epithelial monolayers)” value (shortened to “Effects”) was “+”.
As to “NH2-AAVALLPAVLLALLAPRKKRRQRRRPPQ-amide (SEQ ID NO: 8) (H-AAVALLPAVLLALLAPRKKRRQRRRPPQ-NH2) [PN027]”, the “Effects” value was “+”.
For “BrAc-GWTLNSAGYLLGKINLKALAALAKKILamide (SEQ ID NO: 3) [PN0064]”, the “Effects” value is recorded as “+”.
As to “GRKKRRQRRRPQ-amide (SEQ ID NO: 5) (GRKKRRQRRRPQ-NH2) [PN0069]”, the “Effects” value is “−”.
With RRRRRRR (SEQ ID NO: 6) [PN0071], the “Effects” value is given as “−”.
On the same count and under the same terms, in the case of “Maleimide-GLGSLLKKAGKKLKQPKSKRKV-amide (SEQ ID NO: 12) (maleimide-GLGSLLKKAGKKLKQPKSKRKV-NH2) [PN283]” it was “+”.
As for “NH2-KETWWETWWTEWSQPGRKKRRQRRRPPQ-amide (SEQ ID NO: 11) (H-KETWWETWWTEWSQPGRKKRRQRRRPPQ-NH2) [PN183]”, the “Effects” value is “+”.
Turning to “BrAc-KLALKLALKALKAALKLA-amide (SEQ ID NO: 4) (HELM PEPTIDE1{[O=C(CBr)[*:2]].K.L.A.L.K.L.A.L.K.A.L.K.A.A.L.K.L.A.[am]}$$$$V2.0; SMILES CC(C)C[C@H](NC(=O)[C@H](C)NC(=O)[C@H](CCCCN)NC(=O)[C@H](CC(C)C)NC(=O)[C@H](C)NC(=O)[C@H](CC(C)C)NC(=O)[C@H](CCCCN)NC(=O)[C@H](CC(C)C)NC(=O)[C@H](C)NC(=O)[C@H](CC(C)C)NC(=O)[C@H](CCCCN)NC(=O)CBr)C(=O)N[C@@H](CCCCN)C(=O)N[C@@H](C)C(=O)N[C@@H](C)C(=O)N[C@@H](CC(C)C)C(=O)N[C@@H](CCCCN)C(=O)N[C@@H](CC(C)C)C(=O)N[C@@H](C)C(N)=O) [PN0068]”, the “Effects” value is “+”.
On to “RQIKIWFQNRRMKWKK-amide (SEQ ID NO: 2) (RQIKIWFQNRRMKWKK-NH2) [PN0058]”, for which the “Effects” value is given as “+”.
Still for that read-out and setting: next, “RKKRRQRRRPPQCAAVALLPAVLLALLAP-amide (SEQ ID NO: 1) (RKKRRQRRRPPQCAAVALLPAVLLALLAP-NH2) [PN0028]”: “+”; “NH2-LLETLLKPFQCRICMRNFSTRQARRNHRRRHRR-amide (SEQ ID NO: 9) (H-LLETLLKPFQCRICMRNFSTRQARRNHRRRHRR-NH2; cysteine pairing not given here) [PN202]”: “+”.
